Each molecule was assayed against Cdk9/cyclinT1 (Homo sapiens, UniProt P50750) (assay: Cdk9/cyclinT1 IMAP Protocol (fluorescence polarization kinase assay)). Details: Cdk9_cyclinT1_IC50, Table V; generated using one of the two Cdk9/cyclinT1 assays (IMAP or Alpha Screen), not stated which; ATP 6 uM.
Sequence of Cdk9/cyclinT1 (P50750 whole entry): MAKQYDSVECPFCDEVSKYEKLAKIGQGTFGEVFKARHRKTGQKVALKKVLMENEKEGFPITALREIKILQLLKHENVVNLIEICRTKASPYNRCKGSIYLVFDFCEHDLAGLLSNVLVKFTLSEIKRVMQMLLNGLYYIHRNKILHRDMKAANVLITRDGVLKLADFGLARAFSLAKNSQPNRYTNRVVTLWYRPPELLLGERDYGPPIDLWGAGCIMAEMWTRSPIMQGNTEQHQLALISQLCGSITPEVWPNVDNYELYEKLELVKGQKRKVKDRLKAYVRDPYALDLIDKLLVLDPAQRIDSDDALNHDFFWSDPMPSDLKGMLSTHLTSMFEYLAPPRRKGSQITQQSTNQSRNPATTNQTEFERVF
Sequence of Cdk9/cyclinT1 (O60563 whole entry partner): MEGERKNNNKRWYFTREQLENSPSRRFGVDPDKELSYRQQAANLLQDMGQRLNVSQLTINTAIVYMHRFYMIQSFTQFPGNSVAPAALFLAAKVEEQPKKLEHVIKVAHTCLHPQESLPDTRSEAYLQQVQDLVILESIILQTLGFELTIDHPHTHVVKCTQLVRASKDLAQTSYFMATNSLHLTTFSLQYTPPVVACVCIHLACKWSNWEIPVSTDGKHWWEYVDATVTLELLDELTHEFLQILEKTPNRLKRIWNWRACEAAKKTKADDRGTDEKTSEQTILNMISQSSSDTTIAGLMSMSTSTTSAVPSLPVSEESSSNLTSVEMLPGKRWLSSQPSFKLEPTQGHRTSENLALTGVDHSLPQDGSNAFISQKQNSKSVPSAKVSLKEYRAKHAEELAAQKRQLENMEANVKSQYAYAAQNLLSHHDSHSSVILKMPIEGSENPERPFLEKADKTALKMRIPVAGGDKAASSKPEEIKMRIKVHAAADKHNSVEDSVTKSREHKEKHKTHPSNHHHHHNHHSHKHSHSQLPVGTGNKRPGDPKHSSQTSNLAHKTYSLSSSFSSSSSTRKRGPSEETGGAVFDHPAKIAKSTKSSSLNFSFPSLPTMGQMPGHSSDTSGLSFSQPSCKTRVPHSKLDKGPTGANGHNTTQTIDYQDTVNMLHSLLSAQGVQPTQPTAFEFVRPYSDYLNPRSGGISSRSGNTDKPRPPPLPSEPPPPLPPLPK

| Compound | IC50 |
| --- | --- |
| CC(=O)N1CCC[C@H](C(=O)Nc2cc(-c3cccc(NCC4CCOCC4)n3)c(Cl)cn2)C1 [Example 89, (S)-1-Acetyl-piperidine-3-carboxylic acid {5′-chloro-6-[(tetrahydro-pyran-4-ylmethyl)-amino]-[2,4′]bipyridinyl-2′-yl}-amide] | < 8 nM |
| CC1(C)C[C@@H](CNc2cccc(-c3cc(NC(=O)[C@@H]4CCNC4)ncc3Cl)n2)CCO1 [Example 260, (R)-Pyrrolidine-3-carboxylic acid {5′-chloro-6-[((S)-2,2-dimethyl-tetrahydro-pyran-4-ylmethyl)-amino]-[2,4′]bipyridinyl-2′-yl}-amide] | 1 nM |
| CC1(C)COC(CNc2nc(-c3cc(NC(=O)[C@@H]4CCCNC4)ncc3Cl)ccc2F)CO1 (stereo partly drawn) [Example 255, (R)-Piperidine-3-carboxylic acid {5′-chloro-6-[(5,5-dimethyl-[1,4]dioxan-2-ylmethyl)-amino]-5-fluoro-[2,4′]bipyridinyl-2′-yl}-amide] | 1 nM |
| C[C@@H]1CC(CNc2cccc(-c3cc(NC(=O)[C@H]4CNCCO4)ncc3Cl)n2)C[C@H](C)O1 (stereo partly drawn) [Example 169, (R)-Morpholine-2-carboxylic acid {5′-chloro-6-[((2R,6S)-2,6-dimethyl-tetrahydro-pyran-4-ylmethyl)-amino]-[2,4′]bipyridinyl-2′-yl}-amide] | 16 nM |
| O=C(Nc1cc(-c2cccc(NCC3CCOCC3)n2)c(Cl)cn1)[C@@H]1CNC[C@H](C(F)(F)F)C1 (single isomer, unassigned) [Example 183] | 55 nM |
| O=C(Nc1cc(-c2cccc(NCC3CCOCC3)n2)c(Cl)cn1)[C@H]1CNC[C@H](C(F)(F)F)C1 (racemic) [Example 149, (3R,5R)-/(3S,5S)-5-Trifluoromethyl-piperidine-3-carboxylic acid {5′-chloro-6-[(tetrahydro-pyran-4-ylmethyl)-amino]-[2,4′]bipyridinyl-2′-yl}-amide] | 31 nM |
| COC(=O)N1CCC[C@H](C(=O)Nc2cc(-c3nc(NC[C@H]4CCOC(C)(C)C4)ccc3Cl)c(Cl)cn2)C1 (single isomer, unassigned) [Example 175] | 2 nM |
| CC1(CNc2nc(-c3cc(NC(=O)[C@@H]4CCCNC4)ncc3Cl)ccc2F)CCOCC1 [Example 208, (R)-Piperidine-3-carboxylic acid {5′-chloro-5-fluoro-6-[(4-methyl-tetrahydro-pyran-4-ylmethyl)-amino]-[2,4′]bipyridinyl-2′-yl}-amide] | 1 nM |
| C[C@H]1CC[C@@H](C(=O)Nc2cc(-c3cccc(NCC4CCOCC4)n3)c(Cl)cn2)CN1 (single isomer, unassigned) [Example 141] | < 8 nM |
| O=C(Nc1cc(-c2cccc(NCC3CCOCC3)n2)c(Cl)cn1)[C@H]1CNC[C@@H](C(F)(F)F)C1 (single isomer, unassigned) [Example 182] | 4 nM |
| C[C@@H]1CC(CNc2cccc(-c3cc(NC(=O)[C@@H]4CCNC4)ncc3Cl)n2)C[C@H](C)O1 (stereo partly drawn) [Example 170, (R)-Pyrrolidine-3-carboxylic acid {5′-chloro-6-[((2R,6S)-2,6-dimethyl-tetrahydro-pyran-4-ylmethyl)-amino]-[2,4′]bipyridinyl-2′-yl}-amide] | 1 nM |
| COC(=O)N[C@H]1CC[C@@H](C(=O)Nc2cc(-c3nc(NCC4CCOCC4)ccc3Cl)c(Cl)cn2)C1 [Example 107, ((lS,3R)-3-{3,5′-Dichloro-6-[(tetrahydro-pyran-4-ylmethyl)-amino]-[2,4′]bipyridinyl-2′-ylcarbamoyl}-cyclopentyl)-carbamic acid methyl ester] | < 8 nM |
| CC1(C)COC(CNc2cccc(-c3cc(NC(=O)[C@@H]4CCCNC4)ncc3Cl)n2)CO1 (stereo partly drawn) [Example 218, (R)-Piperidine-3-carboxylic acid {5′-chloro-6-[(5,5-dimethyl-[1,4]dioxan-2-ylmethyl)-amino]-[2,4′]bipyridinyl-2′-yl}-amide] | 1 nM |
| COC(=O)N1CCC[C@H](C(=O)Nc2cc(-c3cccc(NCC4CCOCC4)n3)c(Cl)cn2)C1 [Example 90, (S)-3-{5′-Chloro-6-[(tetrahydro-pyran-4-ylmethyl)-amino]-[2,4′]bipyridinyl-2′-ylcarbamoyl}-piperidine-1-carboxylic acid methyl ester] | 8 nM |
| CC1(C)CC(CNc2ccc(Cl)c(-c3cc(NC(=O)[C@H]4CNCCO4)ncc3Cl)n2)CCO1 (stereo partly drawn) [Example 133, (R)-Morpholine-2-carboxylic acid {3,5′-dichloro-6-[(2,2-dimethyl-tetrahydro-pyran-4-ylmethyl)-amino]-[2,4′]bipyridinyl-2′-yl}-amide] | < 8 nM |
| O=C(Nc1cc(-c2nc(NCC3CCOCC3)ccc2Cl)c(Cl)cn1)C1CNCCOC1 (stereo not shown) [Example 191, [1,4]Oxazepane-6-carboxylic acid {3,5′-dichloro-6-[(tetrahydro-pyran-4-ylmethyl)-amino]-[2,4′]bipyridinyl-2′-yl}-amide] | 1 nM |
| CO[C@@H]1CNC[C@H](C(=O)Nc2cc(-c3cccc(NCC4CCOCC4)n3)c(Cl)cn2)C1 (racemic) [Example 184, (3R,5S)-/(3S,5R)-5-Methoxy-piperidine-3-carboxylic acid {5′-chloro-6-[(tetrahydro-pyran-4-ylmethyl)-amino]-[2,4′]bipyridinyl-2′-yl}-amide] | 11 nM |
| O=C(Cc1cccnc1)Nc1cc(-c2cccc(NCC3CCOCC3)n2)c(Cl)cn1 [Example 66, N-{5′-Chloro-6-[(tetrahydro-pyran-4-ylmethyl)-amino]-[2,4′]bipyridinyl-2′-yl}-2-pyridin-3-yl-acetamide] | 9 nM |
| CC1(C)C[C@H](CNc2ccc(Cl)c(-c3cc(NC(=O)[C@H]4CNCCO4)ncc3Cl)n2)CCO1 (single isomer, unassigned) [Example 156] | 4 nM |
| O=C(Nc1cc(-c2nc(NCC3CCOCC3)ccc2Cl)c(Cl)cn1)C1CNCCO1 (stereo not shown) [Example 87, Morpholine-2-carboxylic acid {3,5′-dichloro-6-[(tetrahydro-pyran-4-ylmethyl)-amino]-[2,4′]bipyridinyl-2′-yl}-amide] | 18 nM |
| CC(C)(C)OC(=O)N1CCC[C@H](C(=O)Nc2cc(-c3cccc(NCc4cccc(F)c4)n3)c(Cl)cn2)C1 [Example 5, (S)-3-[5′-Chloro-6-(3-fluoro-benzylamino)-[2,4′]bipyridinyl-2′-ylcarbamoyl]-piperidine-1-carboxylic acid tert-butyl ester] | 62 nM |
| CCN1CCCC(C(=O)Nc2cc(-c3cccc(NCC4CCOCC4)n3)c(Cl)cn2)C1 (single isomer, unassigned) [Example 14] | 811 nM |
| CC(C)S(=O)(=O)N1CCC[C@H](C(=O)Nc2cc(-c3nc(NC[C@@H]4CCOC(C)(C)C4)ccc3Cl)c(Cl)cn2)C1 (single isomer, unassigned) [Example 172] | 1 nM |
| O=C(Nc1cc(-c2cccc(NCC3CCOCC3)n2)c(Cl)cn1)[C@H]1CN[C@@H](CF)C1 [Example 179, (3R,5R)-5-Fluoromethyl-pyrrolidine-3-carboxylic acid {5′-chloro-6-[(tetrahydro-pyran-4-ylmethyl)-amino]-[2,4′]bipyridinyl-2′-yl}-amide] | 7 nM |
| C[C@H]1CC[C@H](C(=O)Nc2cc(-c3cccc(NC[C@H]4CCOC(C)(C)C4)n3)c(Cl)cn2)CN1 (single isomer, unassigned) [Example 245] | 6 nM |

Source: patent US20110130380A1, “Heteroaryl Kinase Inhibitors” (priority 2009, published 2011)
